Literature values in patent US8278040B2, “Optically responsive and mechanically tunable colloid-in-liquid crystal gels” (priority 2008, dated 2012).

System: live cells

CCCCCc1ccc(-c2ccc(C#N)cc2)cc1 [5CB, 4-cyano-4′-pentylbiphenyl]
toxicity to living cells (stated) (general statement, criteria of Luk et al.): cytotoxic | cell death on direct contact with live cells (placed into direct contact with live cells): cause cell death within a short time period
